Laboratory results published in patent publication US20240092770A1, “Heterocycle RMB39 Modulators” (Recursion Pharmaceuticals, Inc., priority 2022, published 2024).

target: RBM39 and the DCAF15 complex (RBM39-Flag / His-DCAF15-DDA1-DDB1) (Homo sapiens (Human), UniProt Q14498+Q66K64); experiment: DCAF15 RBM39 complex formation TR-FRET assay; type: binding; settings: RBM39(R150-D331) 3xFlag 50 nM, His-DCAF15-DDA1-DDB1 10 nM, 60 min room temperature
Method: A TR-FRET assay was used to assess the effect of compounds disclosed herein on the interaction between RBM39 and the DCAF15 complex. Test compounds were dissolved to form a 10 mM DMSO stock solution. A 45 μL aliquot of the stock solution was transferred to a 384 pp-plate, and a threefold, 8-point dilution was performed via transferring 15 μL compound solution into 30 μL of DMSO. The plates were then spun at room temperature at 1,000 RPM for 1 minute.
A 30 nL aliquot of the diluted compound was transferred to a 384 well plate, which was incubated at room temperature for 15 minutes. Next, Solutions 1, 2, and 3 were prepared as described in the below tables. A 5 μL aliquot of Solution 2 was added to each well, followed by 5 μL of Solution 3 to start the reaction. The final volume of each well was 10 μL. The plates were incubated at room temperature for 60 minutes, and then read.
Next, an RBM39 (R150-D331) 3× Flag used in TR-FRET assay was prepared:
Recombinant RBM39 protein is composed of the R1R2 of RBM39 (aa 150 to 331; UniProt: Q14498). The coding sequence was sub-cloned into pGEX4T-1-RBM39-flag vector, expressed as a GST-fusion protein with N-terminal TEV protease cleavage site. A 3× Flag tag was added to the C-terminal of R1R2 used in a FRET assay.

Structure (SMILES) | EC50 [µM]
Cc1ccc(NS(=O)(=O)c2ncc(-c3cncnc3)s2)c2[nH]cc(C#N)c12 [Compound 67] | 0.52
Cc1ccc(NS(=O)(=O)c2ncc(-c3ccnnc3)s2)c2[nH]cc(C#N)c12 [Compound 68] | 0.708
Cc1ccc(NS(=O)(=O)c2ncc(-c3cc[nH]n3)s2)c2[nH]cc(C#N)c12 [Compound 69] | 0.421
Cc1ccc(NS(=O)(=O)c2ncc(-c3cn[nH]c3)s2)c2[nH]cc(C#N)c12 [Compound 70] | 0.338
Cc1ccc(NS(=O)(=O)c2ncc(-c3cocn3)s2)c2[nH]cc(C#N)c12 [Compound 71] | 0.532
Cc1ccc(NS(=O)(=O)c2cc(C3CC3)no2)c2[nH]cc(C#N)c12 [Compound 81] | 0.0556
Cc1nc(S(=O)(=O)Nc2ccc(C)c3c(C#N)c[nH]c23)c(C)s1 [Compound 82] | 1.44
Cc1ccc(NS(=O)(=O)c2onc(C3CC3)c2Cl)c2[nH]cc(C#N)c12 [Compound 83] | 0.105
CCc1ncc(S(=O)(=O)Nc2ccc(C)c3c(C#N)c[nH]c23)s1 [Compound 85] | 0.0959
Cc1nocc1S(=O)(=O)Nc1ccc(C)c2c(C#N)c[nH]c12 [Compound 86] | 2.07
Cc1ccc(NS(=O)(=O)c2cc(C(C)(C)C)no2)c2[nH]cc(C#N)c12 [Compound 94] | 0.0452
Cc1ccc(NS(=O)(=O)c2cnc(C3CC3)o2)c2[nH]cc(C#N)c12 [Compound 97] | 0.105
Cc1ncc(S(=O)(=O)Nc2ccc(C)c3c(C#N)c[nH]c23)o1 [Compound 98] | 0.196
Cc1ccc(NS(=O)(=O)c2cnc(C(C)(C)C)o2)c2[nH]cc(C#N)c12 [Compound 100] | 0.364
O=S(=O)(Nc1cccc2cn[nH]c12)c1nccs1 [Compound 102] | > 30
Cc1ccc(NS(=O)(=O)c2ncc(C(=O)N3CCOCC3)s2)c2[nH]cc(C#N)c12 [Compound 112] | 1.36
Cc1ccc(NS(=O)(=O)c2cnc(C(F)F)s2)c2[nH]cc(C#N)c12 [Compound 117] | 0.0996
CCc1ncc(S(=O)(=O)Nc2ccc(C)c3c(C#N)c[nH]c23)o1 [Compound 118] | 0.168
CNC(=O)c1cnc(S(=O)(=O)Nc2ccc(C)c3c(C#N)c[nH]c23)s1 [Compound 126] | 0.96
Cc1ccc(NS(=O)(=O)c2ncc(C(=O)N(C)C)s2)c2[nH]cc(C#N)c12 [Compound 127] | 0.959
Cc1ccc(NS(=O)(=O)c2ncc(C(=O)NCCO)s2)c2[nH]cc(C#N)c12 [Compound 129] | 1.82
Cc1ccc(NS(=O)(=O)c2ncc(C(=O)N3CCCC3)s2)c2[nH]cc(C#N)c12 [Compound 130] | 1.13
Cc1ccc(NS(=O)(=O)c2ncc(C(=O)N3CCN(C)CC3)s2)c2[nH]cc(C#N)c12 [Compound 131] | 3.8
Cc1ccc(NS(=O)(=O)c2cc(C(C)C)no2)c2[nH]cc(C#N)c12 [Compound 135] | 0.047

The next lines start with the values.

EC50 [µM] | Structure (SMILES)
1.36 | Cc1ccc(NS(=O)(=O)c2nc(C(=O)N3CCCC3)cs2)c2[nH]cc(C#N)c12 [Compound 60]
1.79 | Cc1ccc(NS(=O)(=O)c2nc(C(=O)N3CCOCC3)cs2)c2[nH]cc(C#N)c12 [Compound 61]
1.17 | Cc1ccc(NS(=O)(=O)c2cscn2)c2[nH]cc(C#N)c12 [Compound 63]
3.44 | N#Cc1c[nH]c2c(NS(=O)(=O)c3cscn3)cccc12 [Compound 64]
1.08 | N#Cc1c[nH]c2c(NS(=O)(=O)c3nc(Br)cs3)cccc12 [Compound 65]
0.431 | Cc1ccc(NS(=O)(=O)c2nc(C(N)=O)cs2)c2[nH]cc(C#N)c12 [Compound 72]
0.738 | CCN(CC)C(=O)c1csc(S(=O)(=O)Nc2ccc(C)c3c(C#N)c[nH]c23)n1 [Compound 73]
1.45 | Cc1ccc(NS(=O)(=O)c2nc(C(=O)NCCO)cs2)c2[nH]cc(C#N)c12 [Compound 74]
2.18 | COCCNC(=O)c1csc(S(=O)(=O)Nc2ccc(C)c3c(C#N)c[nH]c23)n1 [Compound 75]
3.32 | Cc1ccc(NS(=O)(=O)c2nc(C(=O)N3CCC(O)C3)cs2)c2[nH]cc(C#N)c12 (stereo not drawn) [Compound 76]
0.828 | Cc1ccc(NS(=O)(=O)c2nc(C(=O)N3CCCCC3)cs2)c2[nH]cc(C#N)c12 [Compound 77]
3.25 | Cc1ccc(NS(=O)(=O)c2nc(C(=O)N3CCNCC3)cs2)c2[nH]cc(C#N)c12 [Compound 78]
9.71 | Cc1ccc(NS(=O)(=O)c2nc(C(=O)N3CCN(C)CC3)cs2)c2[nH]cc(C#N)c12 [Compound 79]
0.175 | COc1ncc(S(=O)(=O)Nc2ccc(C)c3c(C#N)c[nH]c23)s1 [Compound 84]
0.277 | N#Cc1c[nH]c2c(NS(=O)(=O)c3cc(C4CC4)no3)cccc12 [Compound 87]
0.174 | N#Cc1c[nH]c2c(NS(=O)(=O)c3onc(C4CC4)c3Cl)cccc12 [Compound 89]
0.389 | COc1ncc(S(=O)(=O)Nc2cccc3c(C#N)c[nH]c23)s1 [Compound 90]
0.0766 | CCc1ncc(S(=O)(=O)Nc2cccc3c(C#N)c[nH]c23)s1 [Compound 91]

EC50 [µM] | Structure (SMILES)
1.52 | Cc1scnc1S(=O)(=O)Nc1ccc(C)c2c(C#N)c[nH]c12 [Compound 93]
0.104 | Cc1ccc(NS(=O)(=O)c2csc(C(F)F)n2)c2[nH]cc(C#N)c12 [Compound 95]
0.518 | Cc1nc(Br)sc1S(=O)(=O)Nc1ccc(C)c2c(C#N)c[nH]c12 [Compound 99]
0.128 | CC(C)(C)c1cc(S(=O)(=O)Nc2cccc3c(C#N)c[nH]c23)on1 [Compound 104]
0.299 | N#Cc1c[nH]c2c(NS(=O)(=O)c3csc(C(F)F)n3)cccc12 [Compound 105]
0.325 | N#Cc1c[nH]c2c(NS(=O)(=O)c3cnc(C4CC4)o3)cccc12 [Compound 107, N-(3-cyano-1H-indol-7-yl)-2-cyclopropyl-1,3-oxazole-5-sulfonamide]
1.97 | Cc1ncc(S(=O)(=O)Nc2cccc3c(C#N)c[nH]c23)o1 [Compound 108]
2.07 | Cc1nc(Br)sc1S(=O)(=O)Nc1cccc2c(C#N)c[nH]c12 [Compound 109]
0.729 | CC(C)(C)c1ncc(S(=O)(=O)Nc2cccc3c(C#N)c[nH]c23)o1 [Compound 110]
1.63 | Cc1ccc(NS(=O)(=O)c2ncc(P(C)(C)=O)s2)c2[nH]cc(C#N)c12 [Compound 111, N-(3-cyano-4-methyl-1H-indol-7-yl)-5-(dimethylphosphoryl)thiazole-2-sulfonamide]
3.26 | N#Cc1c[nH]c2c(NS(=O)(=O)c3nccs3)ccc(F)c12 [Compound 114]
2.13 | N#Cc1c[nH]c2c(NS(=O)(=O)c3ncc(Cl)s3)cccc12 [Compound 116]
0.359 | N#Cc1c[nH]c2c(NS(=O)(=O)c3cnc(C(F)F)s3)cccc12 [Compound 120]
0.65 | CCN(CC)C(=O)c1csc(S(=O)(=O)Nc2ccc(C)c3c(C#N)c[nH]c23)n1 [Compound 128]
6.65 | N#Cc1c[nH]c2c(NS(=O)(=O)c3nccs3)cc(F)cc12 [Compound 132]
2.67 | O=S(=O)(Nc1cccc2c(Cl)c[nH]c12)c1nccs1 [Compound 133]
1.76 | N#Cc1c[nH]c2c(NS(=O)(=O)c3nc(C(F)(F)F)cs3)cccc12 [Compound 134]
0.511 | N#Cc1c[nH]c2c(NS(=O)(=O)c3cnc(Cl)s3)cccc12 [Compound 136]
